According to paper PMC10562900 (RSC Advances, 2023):

Legend:
h-e5′NT [1] = target: T1, h-e5′NT (Homo sapiens, UniProt P21589); assay: CD73; format: biochemical; conditions: for inhibition at 100 µM: read-out: inhibition% h-e5′NT
T1 sequence (P21589 27-574): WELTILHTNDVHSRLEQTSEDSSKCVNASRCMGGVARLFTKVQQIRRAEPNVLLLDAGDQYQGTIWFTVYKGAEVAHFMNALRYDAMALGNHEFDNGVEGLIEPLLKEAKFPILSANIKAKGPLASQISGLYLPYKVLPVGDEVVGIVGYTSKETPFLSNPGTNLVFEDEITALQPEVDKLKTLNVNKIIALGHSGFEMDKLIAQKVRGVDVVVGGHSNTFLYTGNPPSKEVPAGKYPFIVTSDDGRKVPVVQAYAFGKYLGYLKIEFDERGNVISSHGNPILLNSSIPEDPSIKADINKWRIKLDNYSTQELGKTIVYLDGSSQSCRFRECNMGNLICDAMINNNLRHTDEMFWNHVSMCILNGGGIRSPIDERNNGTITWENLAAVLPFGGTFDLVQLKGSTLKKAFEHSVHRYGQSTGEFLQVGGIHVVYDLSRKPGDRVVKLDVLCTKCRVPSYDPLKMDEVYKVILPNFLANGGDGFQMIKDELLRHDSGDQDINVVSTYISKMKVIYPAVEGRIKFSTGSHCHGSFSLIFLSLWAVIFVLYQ

r-e5′NT [2] = target: T2, r-e5′NT (Rattus norvegicus, UniProt P21588); assay: CD73; format: biochemical; conditions: for inhibition at 100 µM: read-out: inhibition% r-e5′NT
T2 sequence (P21588 29-576): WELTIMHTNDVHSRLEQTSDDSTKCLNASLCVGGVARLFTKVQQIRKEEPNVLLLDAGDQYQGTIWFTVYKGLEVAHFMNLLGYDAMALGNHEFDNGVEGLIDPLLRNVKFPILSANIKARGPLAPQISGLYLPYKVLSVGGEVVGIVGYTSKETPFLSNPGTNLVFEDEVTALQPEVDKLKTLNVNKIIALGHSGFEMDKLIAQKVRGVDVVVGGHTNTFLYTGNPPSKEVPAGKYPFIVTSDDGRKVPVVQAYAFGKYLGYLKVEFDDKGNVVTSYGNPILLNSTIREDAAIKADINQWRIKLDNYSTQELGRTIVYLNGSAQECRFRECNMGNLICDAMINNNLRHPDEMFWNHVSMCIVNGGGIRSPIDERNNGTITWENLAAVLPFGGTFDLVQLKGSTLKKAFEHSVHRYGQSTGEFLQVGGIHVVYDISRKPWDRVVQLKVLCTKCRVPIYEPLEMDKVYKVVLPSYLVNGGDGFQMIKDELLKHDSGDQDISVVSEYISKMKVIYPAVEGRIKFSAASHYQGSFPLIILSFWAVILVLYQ

h-TNAP = target: T3, h-TNAP (Homo sapiens, UniProt P05186); assay: h-TNAP inhibition assay; format: biochemical; conditions: for inhibition at 100 µM: read-out: inhibition% h-TNAP
T3 sequence (P05186 18-524): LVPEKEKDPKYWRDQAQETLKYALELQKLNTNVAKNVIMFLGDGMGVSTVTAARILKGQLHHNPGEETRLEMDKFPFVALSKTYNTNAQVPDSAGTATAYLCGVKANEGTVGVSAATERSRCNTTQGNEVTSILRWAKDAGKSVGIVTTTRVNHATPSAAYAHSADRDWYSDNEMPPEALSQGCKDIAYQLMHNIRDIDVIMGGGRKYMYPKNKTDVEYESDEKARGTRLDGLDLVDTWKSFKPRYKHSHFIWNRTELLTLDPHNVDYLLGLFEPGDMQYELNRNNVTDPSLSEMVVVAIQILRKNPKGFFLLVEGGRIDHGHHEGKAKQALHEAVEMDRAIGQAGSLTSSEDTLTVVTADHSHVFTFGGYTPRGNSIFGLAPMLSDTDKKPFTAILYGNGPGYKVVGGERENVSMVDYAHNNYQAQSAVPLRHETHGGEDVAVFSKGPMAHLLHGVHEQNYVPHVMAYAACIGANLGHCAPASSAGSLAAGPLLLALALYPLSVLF

h-e5′NT [3] = target: T1, h-e5′NT; assay: Enzyme kinetic studies, h-e5′NT; format: biochemical; conditions: Lineweaver–Burk
MCF-7 = conditions: read-out: IC50 (cell viability); cited from earlier work
r-e5′NT [4] = target: T2, r-e5′NT; assay: Enzyme kinetic studies, r-e5′NT; format: biochemical; conditions: Lineweaver–Burk
h-ENPP1 = target: T4, h-ENPP1 (Homo sapiens, UniProt P22413); assay: h-ENPP1 inhibition assay; format: biochemical; conditions: read-out: inhibition% h-ENPP1
T4 sequence (P22413 1-925): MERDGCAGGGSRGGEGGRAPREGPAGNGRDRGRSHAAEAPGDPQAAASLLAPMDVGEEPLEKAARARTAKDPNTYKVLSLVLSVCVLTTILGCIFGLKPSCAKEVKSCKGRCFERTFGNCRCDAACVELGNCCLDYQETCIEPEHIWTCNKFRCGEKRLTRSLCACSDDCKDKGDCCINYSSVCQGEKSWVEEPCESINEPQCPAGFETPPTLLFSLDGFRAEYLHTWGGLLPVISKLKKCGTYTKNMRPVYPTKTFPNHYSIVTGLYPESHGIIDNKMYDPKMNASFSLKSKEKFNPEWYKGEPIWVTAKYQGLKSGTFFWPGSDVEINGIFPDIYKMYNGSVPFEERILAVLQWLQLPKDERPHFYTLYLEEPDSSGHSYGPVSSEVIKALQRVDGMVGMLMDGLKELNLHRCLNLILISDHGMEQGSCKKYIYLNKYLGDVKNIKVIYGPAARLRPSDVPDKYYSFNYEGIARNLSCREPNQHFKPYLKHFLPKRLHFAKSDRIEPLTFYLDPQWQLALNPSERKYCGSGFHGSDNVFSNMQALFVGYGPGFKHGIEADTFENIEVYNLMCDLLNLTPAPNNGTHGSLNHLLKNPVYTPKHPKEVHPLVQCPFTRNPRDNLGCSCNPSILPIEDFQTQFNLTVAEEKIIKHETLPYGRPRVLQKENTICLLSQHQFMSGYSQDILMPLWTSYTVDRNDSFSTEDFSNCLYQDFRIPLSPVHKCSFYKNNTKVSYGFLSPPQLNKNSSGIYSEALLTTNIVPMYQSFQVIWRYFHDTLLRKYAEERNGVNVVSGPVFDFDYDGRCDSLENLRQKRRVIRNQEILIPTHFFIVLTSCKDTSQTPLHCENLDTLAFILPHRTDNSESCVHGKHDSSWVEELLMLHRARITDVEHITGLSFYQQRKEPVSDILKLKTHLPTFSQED

h-ENPP3 = target: T5, h-ENPP3 (Homo sapiens, UniProt O14638); assay: h-ENPP3 inhibition assay; format: biochemical; conditions: for selectivity for h-ENPP3 between the two h-ENPP isozymes: h-ENPP3 versus h-ENPP1
T5 sequence (O14638 1-875): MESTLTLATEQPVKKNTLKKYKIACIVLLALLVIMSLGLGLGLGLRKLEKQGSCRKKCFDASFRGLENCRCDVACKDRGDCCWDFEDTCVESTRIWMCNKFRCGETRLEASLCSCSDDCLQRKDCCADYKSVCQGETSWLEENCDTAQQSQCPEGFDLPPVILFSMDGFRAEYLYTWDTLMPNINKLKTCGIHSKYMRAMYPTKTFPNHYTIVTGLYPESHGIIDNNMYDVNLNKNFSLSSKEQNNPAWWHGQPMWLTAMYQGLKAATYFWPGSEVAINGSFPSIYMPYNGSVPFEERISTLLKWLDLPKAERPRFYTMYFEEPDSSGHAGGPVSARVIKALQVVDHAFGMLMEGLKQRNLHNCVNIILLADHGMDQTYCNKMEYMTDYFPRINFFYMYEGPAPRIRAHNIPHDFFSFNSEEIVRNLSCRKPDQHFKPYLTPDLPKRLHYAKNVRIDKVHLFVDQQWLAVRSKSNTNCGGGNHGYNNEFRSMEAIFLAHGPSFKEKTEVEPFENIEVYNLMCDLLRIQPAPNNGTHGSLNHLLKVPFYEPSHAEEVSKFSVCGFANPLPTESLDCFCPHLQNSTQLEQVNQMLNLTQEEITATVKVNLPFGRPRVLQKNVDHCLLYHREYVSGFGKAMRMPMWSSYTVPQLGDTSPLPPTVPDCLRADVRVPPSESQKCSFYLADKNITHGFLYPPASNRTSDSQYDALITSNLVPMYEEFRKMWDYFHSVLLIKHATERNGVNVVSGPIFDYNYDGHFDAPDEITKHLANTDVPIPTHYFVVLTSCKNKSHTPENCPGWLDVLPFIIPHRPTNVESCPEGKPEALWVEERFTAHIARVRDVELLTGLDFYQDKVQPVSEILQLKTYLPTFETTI

| Structure (SMILES) | IC50 (h-e5′NT [1]) | inhibition at 100 µM (r-e5′NT [2]) | IC50 (h-TNAP) | IC50 (r-e5′NT [2]) | other results |
| --- | --- | --- | --- | --- | --- |
| O=C(Cc1c[nH]c2ccccc12)Nc1ccccc1OS(=O)(=O)c1cccc2cccnc12 [5m, 2-(2-(1H-indol-3-yl)acetamido)phenyl quinoline-8-sulfonate] | 6530 ± 670 nM | 30% | 1300 ± 380 nM |  |  |
| O=C(Cc1c[nH]c2ccccc12)Nc1ccccc1OS(=O)(=O)Cc1ccccc1 [5b, 2-(2-(1H-indol-3-yl)acetamido)phenyl phenylmethanesulfonate] | 13200 ± 3140 nM | 38.5% |  |  | inhibition at 100 µM (h-TNAP): 42.4% |
| COc1ccc(OS(=O)(=O)c2ccc(C)cc2)cc1 [p-methoxyphenyl p-toluenesulfonate] |  |  |  |  | IC50 (MCF-7): 126000 nM |
| CC(C)S(=O)(=O)Oc1ccccc1NC(=O)Cc1c[nH]c2ccccc12 [5k, 2-(2-(1H-indol-3-yl)acetamido)phenyl propane-2-sulfonate] |  | 28.6% |  |  | inhibition at 100 µM (h-e5′NT [1]): 37.5%; inhibition at 100 µM (h-TNAP): 31.8% |
| O=C(Cc1c[nH]c2ccccc12)Nc1ccccc1OS(=O)(=O)c1ccc(I)cc1 [5i, 2-(2-(1H-indol-3-yl)acetamido)phenyl 4-iodobenzenesulfonate] | 4850 ± 550 nM |  | 2270 ± 240 nM | 810 ± 50 nM | Mode of inhibition r-e5′NT (r-e5′NT [4]): competitive |
| O=C(Cc1c[nH]c2ccccc12)Nc1ccccc1OS(=O)(=O)c1cccs1 [5n, 2-(2-(1H-indol-3-yl)acetamido)phenyl thiophene-2-sulfonate] |  | 46.6% |  |  | inhibition at 100 µM (h-ENPP1): 38%; IC50 (h-ENPP3): 2550 ± 70 nM; selectivity for h-ENPP3 between the two h-ENPP isozymes (h-ENPP3): more effective and selective for h-ENPP3; inhibition at 100 µM (h-e5′NT [1]): 44.7%; inhibition at 100 µM (h-TNAP): 28.9% |
| O=C(Cc1c[nH]c2ccccc12)Nc1ccccc1OS(=O)(=O)c1ccccc1Cl [5a, 2-(2-(1H-indol-3-yl)acetamido)phenyl 2-chlorobenzenesulfonate] | 1190 ± 20 nM | 22.7% | 1600 ± 110 nM |  |  |
| COc1cccc(OS(=O)(=O)c2ccc(C)cc2)c1 [3-methoxyphenyl p-toluenesulfonate] |  |  |  |  | IC50 (MCF-7): 89800 nM |
| Cc1ccc(S(=O)(=O)Oc2ccccc2NC(=O)Cc2c[nH]c3ccccc23)cc1 [5o, 2-(2-(1H-indol-3-yl)acetamido)phenyl 4-methylbenzenesulfonate] | 3210 ± 830 nM |  | 3370 ± 50 nM | 4860 ± 40 nM | inhibition at 100 µM (h-ENPP1): 28.3%; IC50 (h-ENPP3): 2670 ± 460 nM; selectivity for h-ENPP3 between the two h-ENPP isozymes (h-ENPP3): more effective and selective for h-ENPP3 |
| Cc1ccc(S(=O)(=O)Oc2ccccc2NC(=O)Cc2c[nH]c3ccccc23)cc1Cl [5g, 2-(2-(1H-indol-3-yl)acetamido)phenyl 3-chloro-4-methylbenzenesulfonate] | 4410 ± 190 nM |  | 590 ± 80 nM | 1850 ± 110 nM |  |
| COc1ccc(S(=O)(=O)Oc2ccccc2NC(=O)Cc2c[nH]c3ccccc23)cc1 [5d, 2-(2-(1H-indol-3-yl)acetamido)phenyl 4-methoxy-benzenesulfonate] | 3460 ± 120 nM |  | 5180 ± 460 nM | 1770 ± 120 nM |  |

Now from value to molecule, other results behind:

| IC50 (h-e5′NT [1]) | inhibition at 100 µM (r-e5′NT [2]) | IC50 (h-TNAP) | IC50 (r-e5′NT [2]) | Structure (SMILES) | other results |
| --- | --- | --- | --- | --- | --- |
| 890 ± 40 nM |  | 1680 ± 70 nM | 5120 ± 610 nM | O=C(Cc1c[nH]c2ccccc12)Nc1ccccc1OS(=O)(=O)C(F)(F)F [5j, 2-(2-(1H-indol-3-yl)acetamido)phenyl trifluoromethanesulfonate] |  |
| 370 ± 30 nM |  | 1480 ± 20 nM | 1660 ± 40 nM | O=C(Cc1c[nH]c2ccccc12)Nc1ccccc1OS(=O)(=O)c1ccc(F)cc1 [5c, 2-(2-(1H-indol-3-yl)acetamido)phenyl 4-fluorobenzenesulfonate] | Mode of inhibition h-e5′NT (h-e5′NT [3]): un-competitive |
| 430 ± 30 nM |  | 1690 ± 180 nM | 5670 ± 110 nM | O=C(Cc1c[nH]c2ccccc12)Nc1ccccc1OS(=O)(=O)c1ccc(Cl)cc1 [5l, 2-(2-(1H-indol-3-yl)acetamido)phenyl 4-chlorobenzenesulfonate] |  |
| 560 ± 16 nM |  | 1060 ± 30 nM | 980 ± 20 nM | O=C(Cc1c[nH]c2ccccc12)Nc1ccccc1OS(=O)(=O)c1ccc(-c2ccccc2)cc1 [5e, 2-(2-(1H-indol-3-yl)acetamido)phenyl [1,1′-biphenyl]-4-sulfonate] |  |
| 690 ± 1 nM |  | 6580 ± 250 nM | 1640 ± 20 nM | O=C(Cc1c[nH]c2ccccc12)Nc1ccccc1OS(=O)(=O)c1ccc(Br)cc1 [5f, 2-(2-(1H-indol-3-yl)acetamido)phenyl 4-bromobenzenesulfonate] |  |
